Source: BindingDB's records for doi:10.1016/j.bmc.2017.07.045 (Punjabi University, 2017)

Test: Inhibition of P2Y12 in human platelet rich plasma assessed as reduction in ADP-induced platelet aggregation pre-incubated before ADP addition and measured after 10 mins by Bruker spectrophotometry
CCCn1nc2cccc([N+](=O)[O-])c2n1 gave an IC50 of 1.32 mM. In the case of O=[N+]([O-])c1cccc2c1nnn2Cc1ccccc1, the IC50 is reported as 0.81 mM. Cn1nnc2c([N+](=O)[O-])cccc21 showed an IC50 of 1.84 mM. Cn1nc2cccc([N+](=O)[O-])c2n1 showed an IC50 of 1.96 mM. With Cn1nnc2cccc([N+](=O)[O-])c21 the IC50 was 1.8 mM. For CCn1nc2cccc([N+](=O)[O-])c2n1, the IC50 was 1.62 mM. CCCn1nnc2c([N+](=O)[O-])cccc21 gave an IC50 of 1.3 mM. Compound CCCCn1nnc2c([N+](=O)[O-])cccc21 has an IC50 of 1.05 mM. Compound CCCCCn1nnc2c([N+](=O)[O-])cccc21 has an IC50 of 1.07 mM. CCCCCn1nc2cccc([N+](=O)[O-])c2n1 showed an IC50 of 1.02 mM. Compound CCCCCCn1nnc2c([N+](=O)[O-])cccc21 has an IC50 of 1.04 mM. For CCCCCCCn1nnc2c([N+](=O)[O-])cccc21, the IC50 was 0.95 mM. With CCCCCCCn1nc2cccc([N+](=O)[O-])c2n1 the IC50 was 0.93 mM. CCCCCCCCn1nnc2c([N+](=O)[O-])cccc21 showed an IC50 of 0.94 mM. O=[N+]([O-])c1cccc2c1nnn2CCCCl gave an IC50 of 0.91 mM. O=[N+]([O-])c1cccc2nn(CCCCl)nc12 gave an IC50 of 1.26 mM. Compound O=[N+]([O-])c1cccc2nn(Cc3ccccc3)nc12 has an IC50 of 0.82 mM. For Cc1ccc(S(=O)(=O)n2nnc3c([N+](=O)[O-])cccc32)cc1, the IC50 was 0.86 mM. For CCn1nnc2c([N+](=O)[O-])cccc21, the IC50 was 1.5 mM. With CCCCn1nc2cccc([N+](=O)[O-])c2n1 the IC50 was 1.07 mM. For CCCCCCn1nc2cccc([N+](=O)[O-])c2n1, the IC50 was 0.94 mM. Compound CCCCCCCCn1nc2cccc([N+](=O)[O-])c2n1 has an IC50 of 0.92 mM. Work on O=C(c1ccccc1)n1nnc2c([N+](=O)[O-])cccc21 yielded an IC50 of 0.65 mM. Work on CCCSc1nc(N[C@@H]2C[C@H]2c2ccc(F)c(F)c2)c2nnn([C@@H]3C[C@H](OCCO)[C@@H](O)[C@H]3O)c2n1 [AR-C126532XX] yielded an IC50 of 0.00032 mM. With c1ccc2[nH]nnc2c1 [CHEBI:75331] the IC50 was 7.43 mM.
